Results: patent publication US20100063027A1, “Amine Derivative Having NPY Y5 Receptor Antagonistic Activity” (SHIONOGI & CO., LTD., priority 2006, published 2010)

Assays:
human NPY Y5 receptor = target: T1, human NPY Y5 receptor (Homo sapiens, UniProt Q15761); test: Affinity for NPY Y5 receptor ([125I] peptide YY binding, CHO cell membranes); settings: [125I] peptide YY 60 pM, 25° C., 2 hours
T1 construct: expressed in transfected cells; membranes used
T1 sequence (Q15761 1-445): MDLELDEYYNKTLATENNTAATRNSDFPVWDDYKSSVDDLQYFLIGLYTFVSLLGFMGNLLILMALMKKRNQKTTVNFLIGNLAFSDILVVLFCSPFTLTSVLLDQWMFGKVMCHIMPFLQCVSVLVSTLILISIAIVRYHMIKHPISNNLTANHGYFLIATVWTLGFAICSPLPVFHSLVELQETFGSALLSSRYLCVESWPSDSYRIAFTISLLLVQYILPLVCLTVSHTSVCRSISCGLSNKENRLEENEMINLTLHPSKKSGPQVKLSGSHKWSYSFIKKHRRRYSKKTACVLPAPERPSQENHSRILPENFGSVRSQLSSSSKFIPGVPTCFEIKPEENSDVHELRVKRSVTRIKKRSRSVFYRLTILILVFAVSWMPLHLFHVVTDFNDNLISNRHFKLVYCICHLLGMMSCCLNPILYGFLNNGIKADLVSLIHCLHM
From the text: cDNA sequence encoding a human NPY Y5 receptor (WO96/16542) was cloned in a vector (pME18S, Takebe et al. Mol. Cell. Biol. 8, 8957). The obtained expression vector was transfected into CHO cells as a host by using Lipofect AMINE reagent (Trademark, Gico BRL Co., Ltd.) according to the instruction manual. The cells that stably express NPY Y5 receptor were obtained.
The membranes prepared from the CHO cells expressing NPY Y5 receptor, the compound of the present invention and 30,000 cpm [^125I] peptide YY (60 pM of final concentration: Amersham) were incubated in the assay buffer (20 mM HEPES-Hanks buffer containing 0.1% bovine serum albumin, pH 7.4) at 25° C. for 2 hours, and then the membrane was filtered from the mixture through a glassfilter (GF/C) presoaked with 1% polyethyleneimine. After washing with 50 mM Tris-HCl buffer (pH 7.4), radioactivity retained on the filters was quantified with a gamma counter. Nonspecific binding was defined as the amount of radioactivity bound to the membranes after incubation in the presence of 200 nM of peptide YY. The 50% inhibitory concentration of the test compound against the specific peptide YY binding (IC50 value) was calculated (Inui, A. et al. Endocrinology 131, 2090-2096 (1992)).

[1] = Transportability through the blood-brain barrier (brain Kp) in mice; assay type: in vivo; settings: male, Jcl;C57BL/6J, mouse, brain (relative to plasma), intravenous administration, without cyclosporin A, read-out: brain Kp value (KpCont.), blood-brain partition coefficient
Procedure: (§1) Transportability of the compounds of the present invention through the blood-brain barrier (blood-brain partition coefficient; Kp) in mice (Jcl;C57BL/6J mice, ♂, 7 weeks) was defined from the difference in concentration of the compounds between in plasma and in brain after intravenous administration of the compounds (0.5 mg/2 mIAg). The brain Kp value of Compound (1-72) (KpCont.) was 1.29 showing high transportability through the blood-brain barrier.

P-gp [2] = test system: T2, P-gp; test: Potential for drug-drug interactions through P-gp in vivo (Kp with or without cyclosporin A); settings: male, Jcl;C57BL/6J, mouse, brain (relative to plasma); mice, intravenous administration, with cyclosporin A (20 mg/kg), a P-gp inhibitor; read-out: KpCSA value
T2 construct: effectively excreted through P-gp from the brain to vessels; from tissue; host or cells: brain / blood-brain barrier of living Jcl;C57BL/6J mice
Procedure: as §1
(§2) To examine the potential for drug-drug interactions through P-gp in vivo, the Kp values of compounds of the present invention with (KpCSA) or without (KpCont.) cyclosporin A (20 mg/kg), a P-gp inhibitor, were calculated. The KpCSA value of Compound (I-72) was 1.14, and the calculated KpCSA/KpCont. ratio was 0.9.
(§3) On the other hand the potential for drug-drug interactions through P-pg of amide compound B which has similar structure of Compound (I-72) was also examined in mice. The KpCont. and KpCSA were 0.04 and 0.84, respectively.

P-gp [3] = target: T3, P-gp (Mus musculus, UniProt P21447); test: as above; settings: mice, with versus without cyclosporin A (20 mg/kg)
T3 construct: effectively excreted through P-gp from the brain to vessels; from tissue; host or cells: brain / blood-brain barrier of living Jcl;C57BL/6J mice
Procedure: as §1, §2, §3

T3 sequence (P21447 whole entry): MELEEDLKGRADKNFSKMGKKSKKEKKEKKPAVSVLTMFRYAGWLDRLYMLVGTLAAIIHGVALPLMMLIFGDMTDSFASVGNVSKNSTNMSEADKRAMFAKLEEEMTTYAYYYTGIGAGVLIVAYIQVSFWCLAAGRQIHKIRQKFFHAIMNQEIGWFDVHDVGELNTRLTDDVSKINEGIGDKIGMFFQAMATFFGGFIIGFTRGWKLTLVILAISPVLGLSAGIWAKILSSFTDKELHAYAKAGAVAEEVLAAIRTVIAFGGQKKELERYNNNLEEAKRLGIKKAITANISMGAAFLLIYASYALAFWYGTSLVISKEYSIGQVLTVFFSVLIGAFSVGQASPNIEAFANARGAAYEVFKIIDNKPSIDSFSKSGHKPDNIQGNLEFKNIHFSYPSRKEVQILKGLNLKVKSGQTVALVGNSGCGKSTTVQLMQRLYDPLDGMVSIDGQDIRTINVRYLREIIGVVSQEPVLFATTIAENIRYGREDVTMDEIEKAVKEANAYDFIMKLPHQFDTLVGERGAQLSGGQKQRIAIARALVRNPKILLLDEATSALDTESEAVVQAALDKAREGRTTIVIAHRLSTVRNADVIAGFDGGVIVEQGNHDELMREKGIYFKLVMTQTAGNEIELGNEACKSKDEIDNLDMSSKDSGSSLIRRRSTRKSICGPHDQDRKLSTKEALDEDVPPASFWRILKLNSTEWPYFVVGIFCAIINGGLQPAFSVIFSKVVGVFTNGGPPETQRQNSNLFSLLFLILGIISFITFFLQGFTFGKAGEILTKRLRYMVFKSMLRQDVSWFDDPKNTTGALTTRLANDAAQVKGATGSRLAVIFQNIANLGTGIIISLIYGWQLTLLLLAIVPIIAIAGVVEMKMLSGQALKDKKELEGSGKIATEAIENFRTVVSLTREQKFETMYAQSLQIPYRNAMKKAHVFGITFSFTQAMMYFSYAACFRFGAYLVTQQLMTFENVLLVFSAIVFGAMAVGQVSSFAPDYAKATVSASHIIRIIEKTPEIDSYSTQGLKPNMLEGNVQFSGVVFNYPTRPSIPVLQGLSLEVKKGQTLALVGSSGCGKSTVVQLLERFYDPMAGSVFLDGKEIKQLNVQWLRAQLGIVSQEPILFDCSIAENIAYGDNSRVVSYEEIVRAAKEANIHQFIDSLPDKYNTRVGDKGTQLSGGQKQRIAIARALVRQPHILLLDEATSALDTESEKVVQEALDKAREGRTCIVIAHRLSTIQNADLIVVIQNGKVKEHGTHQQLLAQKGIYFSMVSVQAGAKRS

Row | IC50 (human NPY Y5 receptor) | SMILES | also measured
1 | 2.5 nM | CC(C)(C)S(=O)(=O)NC[C@H]1CC[C@H](Nc2ccc3ccccc3n2)CC1 [Ij-59] | –
2 | 0.27 nM | CC(C)S(=O)(=O)NC[C@H]1CC[C@H](Nc2ccc(OC3CCCC3)nn2)CC1 [Ij-52] | –
3 | 0.39 nM | CC(C)(C)S(=O)(=O)NC[C@H]1CC[C@H](Nc2nc3ccc(C(F)(F)F)cc3s2)CC1 [Ij-66] | –

Second part, the compound before the results:

Row | SMILES | IC50 (human NPY Y5 receptor) | also measured
4 | CCS(=O)(=O)N[C@H]1CC[C@H](CNc2ccc(S(=O)(=O)c3ccc(F)cc3)cc2)CC1 [Ii-34] | 11 nM | –
5 | CCCn1c(=O)oc2cc(NC[C@H]3CC[C@H](NS(=O)(=O)CC)CC3)ccc21 [Ii-16] | 2.5 nM | –
6 | CCS(=O)(=O)N[C@H]1CC[C@H](CNc2cc(-c3ccccc3)on2)CC1 [Ii-44] | 3.4 nM | –
7 | CC1CC(C)CN(c2cccc(NC[C@H]3CC[C@H](NS(=O)(=O)C(C)(C)C)CC3)c2)C1 (stereo partly drawn) [Ii-1] | 0.1 nM | –
8 | C[C@@H]1CN(c2ccc(NC(=O)[C@H]3CC[C@H](NS(=O)(=O)C(C)(C)C)CC3)cc2)C[C@H](C)O1 [compound B, reference compound] | – | Kp [1]: 0.04; Kp (P-gp [2]): 0.84; KpCSA/KpCont. ratio (P-gp [3]): 20.5
9 | C[C@@H]1CN(c2ccc(NC[C@H]3CC[C@H](NS(=O)(=O)C(C)(C)C)CC3)cc2)C[C@H](C)O1 [Compound I-72] | – | Kp [1]: 1.29; melting point: 147 to 149 °C; Kp (P-gp [2]): 1.14; KpCSA/KpCont. ratio (P-gp [3]): 0.9
10 | CC(C)S(=O)(=O)NC[C@H]1CC[C@H](Nc2ccc(C(F)(F)F)cn2)CC1 [Ij-1] | 0.7 nM | –
